Literature values in paper PMC10544023, “Oxetanes in Drug Discovery Campaigns” (Journal of Medicinal Chemistry, 2023).

Assays:
[1] = test system: LRRK2; parameters: method as in ref 49 = [49]; a Liang J.; Jakalian A.; Lambrecht M. J.; Larouche-Gauthier R.; Huestis M.; Ung M. U.; Wang X.; Yadav A.; Zbieg J. R.; Broccatelli F. Lactams as Cbl-b Inhibitors , WO Patent Appl. no. WO20221; conditions: read-out: LRRK2 inhibitor IC50
[2] = test system: PDGFRα D842V; parameters: method as in ref 49 = [49]; a Liang J.; Jakalian A.; Lambrecht M. J.; Larouche-Gauthier R.; Huestis M.; Ung M. U.; Wang X.; Yadav A.; Zbieg J. R.; Broccatelli F. Lactams as Cbl-b Inhibitors , WO Patent Appl. no. WO20221
[3] = test system: KIT D816V; parameters: method as in ref 49 = [49]; a Liang J.; Jakalian A.; Lambrecht M. J.; Larouche-Gauthier R.; Huestis M.; Ung M. U.; Wang X.; Yadav A.; Zbieg J. R.; Broccatelli F. Lactams as Cbl-b Inhibitors , WO Patent Appl. no. WO20221
[4] = test system: hERG; parameters: method as in PMID 24900569; conditions: ref 37a
[5] = amine nitrogen; ref 37a
[6] = test system: Cbl-b; parameters: method as in ref 49 = [49]; a Liang J.; Jakalian A.; Lambrecht M. J.; Larouche-Gauthier R.; Huestis M.; Ung M. U.; Wang X.; Yadav A.; Zbieg J. R.; Broccatelli F. Lactams as Cbl-b Inhibitors , WO Patent Appl. no. WO20221; conditions: read-out: Cbl-b inhibitor IC50
[7] = test system: c-KIT (V654A); parameters: method as in ref 49 = [49]; a Liang J.; Jakalian A.; Lambrecht M. J.; Larouche-Gauthier R.; Huestis M.; Ung M. U.; Wang X.; Yadav A.; Zbieg J. R.; Broccatelli F. Lactams as Cbl-b Inhibitors , WO Patent Appl. no. WO20221
[8] = test system: EZH2; parameters: method as in ref 49 = [49]; a Liang J.; Jakalian A.; Lambrecht M. J.; Larouche-Gauthier R.; Huestis M.; Ung M. U.; Wang X.; Yadav A.; Zbieg J. R.; Broccatelli F. Lactams as Cbl-b Inhibitors , WO Patent Appl. no. WO20221; conditions: read-out: EZH2 inhibitor IC50
[9] = test system: LRRK2 (WT); parameters: method as in ref 49 = [49]; a Liang J.; Jakalian A.; Lambrecht M. J.; Larouche-Gauthier R.; Huestis M.; Ung M. U.; Wang X.; Yadav A.; Zbieg J. R.; Broccatelli F. Lactams as Cbl-b Inhibitors , WO Patent Appl. no. WO20221; conditions: read-out: LRRK2 inhibitor (WT) IC50
[10] = test system: dog; parameters: method as in ref 33a = [33]; a Crawford J. J.; Zhang H. In ACS Symposium Series; American Chemical Society , 2019; Vol. 1332 , pp 239 – 266 . b For an overview of all clinical trials and further investigations, see: Drug Bank; conditions: dog pilot study; ref 33a
[11] = test system: rat; parameters: method as in ref 33a = [33]; a Crawford J. J.; Zhang H. In ACS Symposium Series; American Chemical Society , 2019; Vol. 1332 , pp 239 – 266 . b For an overview of all clinical trials and further investigations, see: Drug Bank; conditions: rat pilot study; ref 33a
[12] = test system: T- versus B-cells; parameters: method as in PMID 32292557; conditions: selectivity of T- versus B-cells; ref 35a

For `O=C1NCCCOc2ccc3[nH]nc(c3c2)-c2cc(cc(N3CCC4(COC4)C3)c2)CO1`, the IC50 [1] is listed as under 10 nM.

For `CCN1CCN(c2ccc(Nc3nc(-c4ccc5cn[nH]c5c4)cn4ccnc34)cc2)CC1` [4-ethyl-piperazine], the “calcd pKaH” value (piperazine analogues of entospletinib, ref 35a) is given as 8.0.

In the case of `C[C@](N)(c1ccc(F)cc1)c1cnc(N2CCN(c3ncnn4cc(-c5cnn(CC6COC6)c5)cc34)CC2)nc1` [Bluprint Medicines WO 2020/210293 A1], the IC50 [2] is given as under 4.5 nM and the IC50 [3] is given as under 4.5 nM.

For `C[C@H]1CN(C2COC2)CCN1c1ccc(Nc2cc(-c3ccnc(N4CCn5c(cc6c5CC(C)(C)C6)C4=O)c3CO)cn(C)c2=O)nc1` [Fenebrutinib, fenebrutinib], the “pKaH (predicted)” value (piperazine ring) is given as 6.3.

For `CCNC(=O)Nc1ccc(-c2nc3c(c(N4CCOC[C@@H]4C)n2)CCN(C2COC2)C3)cc1` [GDC-0349], the IC50 [4] is listed as over 100000 nM and the pKaH [5] is listed as 5.0.

In the case of `CC(C)[C@@H]1CN(C)CCN1Cc1cc2c(c(C(F)(F)F)c1)CN(c1cc(C3(Cc4nncn4C)COC3)cc(OC3CCCC3)n1)C2=O` [Genentech WO 2022/169997 A1], the IC50 [6] is listed as 5.5 nM.

In the case of `Cn1ncc(-c2ccc(CNc3cc(-c4cnc5cc(OCCN6CC7(COC7)C6)ccn45)ncn3)cc2)n1` [Merck WO 2021/013864 A1], the IC50 [7] is listed as 3.3 nM.

In the case of `Cc1ccc2ccc(N[C@H]3CC[C@H](CNc4ncc(C(F)(F)C(=O)NC5COC5)cn4)CC3)nc2c1Cl` [Novartis WO 2022/033492 A1], the IC50 [8] is listed as under 10 nM.

In the case of `C[C@H](C(F)F)n1cc(Nc2ncc3cc(C#N)n([C@H]4COC[C@@H]4C)c3n2)c(OC2COC2)n1` [Sanofi WO 2022/263472 A1], the IC50 [9] is listed as 1 nM.

In the case of `CN1CCN(c2ccc(Nc3cc(-c4cccc(N5CCc6c(sc7c6CC(C)(C)C7)C5=O)c4CO)cn(C)c3=O)nc2)CC1` [compound 4], the hepatotoxicity [10] is given as “high hepatotoxicity” and the hepatotoxicity [11] is given as “high hepatotoxicity”.

For `c1cn2cc(-c3ccc4cn[nH]c4c3)nc(Nc3ccc(N4CCN(C5COC5)CC4)cc3)c2n1` [oxetane on the 4-position], the T/B ratio [12] is listed as 10.
